Test results as given in patent publication US9562021B2, “Histone deacetylase inhibitors and compositions and methods of use thereof” (CHDI Foundation, Inc., priority 2013, dated 2017).
Where two headings read alike, the source gives them in different places.

Key:
[1] = MDCK apparent permeability (Papp A>B); type: in vitro ADME; settings: dog, pH 7.4
[2] = Hepatic microsomal stability, mouse; type: in vitro ADME; settings: mouse liver microsomes
[3] = PK study (iv and po 10 mg/kg), plasma, brain and muscle; type: in vivo; settings: for clearance: read-out: Clearance (CLp) (converted); for Vd: read-out: Volume of Distribution at Steady State (Vdss)
HDAC4 [4] = target: T1, HDAC4 (Homo sapiens, UniProt P56524); assay: HDAC4 (cell) IC50; type: cell-based; settings: Table 3
HDAC4 [5] = target: T1, HDAC4; assay: HDAC4 (bioch) IC50; type: biochemical
[6] = tested on: cellular histone deacetylase activity in Jurkat E6-1 cells; assay: Inhibition of cellular HDAC activity, Boc-Lys(Tfa)-AMC substrate; type: cell-based; settings: Homo sapiens, Class IIa selective substrate
From the text: The potency of exemplifying compounds described herein is quantified by measuring the cellular histone deacetylase enzymatic activity using the Class IIa selective substrate, Boc-Lys(Tfa)-AMC. After penetration in Jurkat E6-1 cells, the substrate is deacetylated to Boc-Lys-AMC. After cell lysis and cleavage by trypsin, the fluorophore AMC is released from the deacetylated substrate only. The fluoresence of the sample is directly related to the histone deacetylase activity in the sample.
Jurkat E6.1 Cell Culture and Plating. Jurkat E6.1 cells are cultured according to standard cell culture protocols in Jurkat E6.1 Growth Media (RPMI without phenol red, 10% FBS, 10 mM HEPES, and 1 mM Sodium Pyruvate). Jurkat E6.1 cells are counted using a Coulter Counter and resuspended in Jurkat E6.1 growth media at a concentration of 75,000 cells/35 μL. 35 μL or 75,000 cells is seeded into Greiner microtitre assay plates. The plates are then incubated at 37° C. and 5% CO2 while other assay components are being prepared.
Serially Dilute HDAC Inhibitor Compounds. […]
Assay. […] Finally the top read fluorescence (Excitation: 355 nm, Emission: 460 nm) is measured using PerkinElmer EnVision.

Boc-Lys(Ac) = Boc-Lys(Ac) IC50; type: cell-based
HDAC6 = target: T2, HDAC6 (Homo sapiens, UniProt Q9UBN7); assay: cat. HDAC6 IC50; type: biochemical
T2 sequence (Q9UBN7 1-1215): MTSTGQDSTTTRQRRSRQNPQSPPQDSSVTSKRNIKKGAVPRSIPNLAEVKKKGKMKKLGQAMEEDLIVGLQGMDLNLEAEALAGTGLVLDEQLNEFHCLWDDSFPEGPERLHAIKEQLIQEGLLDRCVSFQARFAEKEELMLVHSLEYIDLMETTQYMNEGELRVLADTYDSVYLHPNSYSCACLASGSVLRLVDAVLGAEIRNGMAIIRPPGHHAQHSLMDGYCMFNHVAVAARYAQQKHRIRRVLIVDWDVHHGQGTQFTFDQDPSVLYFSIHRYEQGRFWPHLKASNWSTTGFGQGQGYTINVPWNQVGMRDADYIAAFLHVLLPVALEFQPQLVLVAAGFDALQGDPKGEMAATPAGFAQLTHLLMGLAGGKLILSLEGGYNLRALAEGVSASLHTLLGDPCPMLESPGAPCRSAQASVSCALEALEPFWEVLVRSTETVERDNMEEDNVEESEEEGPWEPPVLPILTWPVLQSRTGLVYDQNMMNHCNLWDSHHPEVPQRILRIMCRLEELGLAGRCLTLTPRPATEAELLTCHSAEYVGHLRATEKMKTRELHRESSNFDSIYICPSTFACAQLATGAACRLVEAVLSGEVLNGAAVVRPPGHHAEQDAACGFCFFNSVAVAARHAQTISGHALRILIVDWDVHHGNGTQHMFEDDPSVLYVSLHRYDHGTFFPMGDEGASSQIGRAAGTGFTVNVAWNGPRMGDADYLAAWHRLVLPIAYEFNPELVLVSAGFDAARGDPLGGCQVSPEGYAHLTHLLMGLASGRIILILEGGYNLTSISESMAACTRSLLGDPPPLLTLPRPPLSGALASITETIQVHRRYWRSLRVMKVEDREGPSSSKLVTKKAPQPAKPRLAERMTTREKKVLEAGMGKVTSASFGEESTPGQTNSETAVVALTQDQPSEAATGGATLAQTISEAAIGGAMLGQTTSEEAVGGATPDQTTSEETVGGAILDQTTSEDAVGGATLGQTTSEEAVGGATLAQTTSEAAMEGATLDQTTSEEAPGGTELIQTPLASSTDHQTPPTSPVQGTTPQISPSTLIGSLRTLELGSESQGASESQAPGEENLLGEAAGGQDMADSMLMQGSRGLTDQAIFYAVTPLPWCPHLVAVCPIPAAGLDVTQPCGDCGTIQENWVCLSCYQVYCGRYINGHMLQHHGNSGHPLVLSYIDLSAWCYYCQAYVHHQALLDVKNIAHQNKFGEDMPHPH

human HDAC7 = target: T3, human HDAC7 (Homo sapiens, UniProt Q8WUI4); assay: Inhibition of HDAC7, Boc-Lys(Tfa)-AMC substrate; type: biochemical
T3 construct: amino acids 518-end with a N-terminal Glutathione S-transferase (GST) tag; GST (N); purchased BPS BioScience; host or cells: baculovirus expression system
T3 sequence (Q8WUI4 518-952 limits assumed): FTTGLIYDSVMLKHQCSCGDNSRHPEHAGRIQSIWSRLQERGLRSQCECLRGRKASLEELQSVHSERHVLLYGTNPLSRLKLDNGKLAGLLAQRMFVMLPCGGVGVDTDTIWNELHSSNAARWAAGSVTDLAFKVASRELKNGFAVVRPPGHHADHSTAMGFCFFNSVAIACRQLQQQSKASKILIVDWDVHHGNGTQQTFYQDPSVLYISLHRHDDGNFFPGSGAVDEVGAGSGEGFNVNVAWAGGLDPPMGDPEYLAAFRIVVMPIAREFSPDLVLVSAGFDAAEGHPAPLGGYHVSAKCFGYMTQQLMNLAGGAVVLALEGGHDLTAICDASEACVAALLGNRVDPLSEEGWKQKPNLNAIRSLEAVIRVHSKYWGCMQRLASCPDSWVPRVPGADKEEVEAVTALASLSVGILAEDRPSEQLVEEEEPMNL

[7] = target: T4, human HDAC5 catalytic domain (Homo sapiens, UniProt Q9UQL6); assay: Inhibition of HDAC5 catalytic domain, Boc-Lys(Tfa)-AMC substrate; type: biochemical
T4 construct: amino acids 657-1123 with a C-terminal His tag; His (C); purchased BPS BioScience; host or cells: baculovirus expression system

HDAC3 = HDAC3 (Homo sapiens, UniProt O15379); assay: cat. HDAC3 IC50; type: biochemical
human HDAC9 = target: T5, human HDAC9 (Homo sapiens, UniProt Q9UKV0); assay: Inhibition of HDAC9, Boc-Lys(Tfa)-AMC substrate; type: biochemical
T5 construct: amino acids 604-1066 with a C-terminal His tag; His (C); purchased BPS BioScience; host or cells: baculovirus expression system

HDAC8 = target: T6, HDAC8 (Homo sapiens, UniProt Q9BY41); assay: cat. HDAC8 IC50; type: biochemical
T6 sequence (Q9BY41 1-377): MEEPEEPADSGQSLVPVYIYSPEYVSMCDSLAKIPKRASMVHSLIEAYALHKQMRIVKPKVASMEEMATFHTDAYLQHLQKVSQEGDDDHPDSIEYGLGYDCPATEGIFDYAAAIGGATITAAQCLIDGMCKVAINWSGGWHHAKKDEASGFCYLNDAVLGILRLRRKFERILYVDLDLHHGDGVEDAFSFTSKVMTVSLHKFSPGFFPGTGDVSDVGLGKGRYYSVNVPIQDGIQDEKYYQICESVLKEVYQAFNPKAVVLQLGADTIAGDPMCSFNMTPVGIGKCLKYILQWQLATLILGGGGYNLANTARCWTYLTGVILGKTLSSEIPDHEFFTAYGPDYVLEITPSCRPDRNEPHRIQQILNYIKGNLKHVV

[8] = 5 mg eq./Kg, IV PK, brain, read-out: Brain-plasma
[9] = 5 mg eq./Kg, IV PK, muscle section, read-out: Brain-plasma
[10] = 10 mg/Kg, Oral PK, brain, read-out: Brain-plasma
[11] = 10 mg/Kg, Oral PK, muscle, read-out: Muscle-plasma
[12] = Table 3, read-out: IC50 μM (bioch)

T1 sequence (P56524 whole entry): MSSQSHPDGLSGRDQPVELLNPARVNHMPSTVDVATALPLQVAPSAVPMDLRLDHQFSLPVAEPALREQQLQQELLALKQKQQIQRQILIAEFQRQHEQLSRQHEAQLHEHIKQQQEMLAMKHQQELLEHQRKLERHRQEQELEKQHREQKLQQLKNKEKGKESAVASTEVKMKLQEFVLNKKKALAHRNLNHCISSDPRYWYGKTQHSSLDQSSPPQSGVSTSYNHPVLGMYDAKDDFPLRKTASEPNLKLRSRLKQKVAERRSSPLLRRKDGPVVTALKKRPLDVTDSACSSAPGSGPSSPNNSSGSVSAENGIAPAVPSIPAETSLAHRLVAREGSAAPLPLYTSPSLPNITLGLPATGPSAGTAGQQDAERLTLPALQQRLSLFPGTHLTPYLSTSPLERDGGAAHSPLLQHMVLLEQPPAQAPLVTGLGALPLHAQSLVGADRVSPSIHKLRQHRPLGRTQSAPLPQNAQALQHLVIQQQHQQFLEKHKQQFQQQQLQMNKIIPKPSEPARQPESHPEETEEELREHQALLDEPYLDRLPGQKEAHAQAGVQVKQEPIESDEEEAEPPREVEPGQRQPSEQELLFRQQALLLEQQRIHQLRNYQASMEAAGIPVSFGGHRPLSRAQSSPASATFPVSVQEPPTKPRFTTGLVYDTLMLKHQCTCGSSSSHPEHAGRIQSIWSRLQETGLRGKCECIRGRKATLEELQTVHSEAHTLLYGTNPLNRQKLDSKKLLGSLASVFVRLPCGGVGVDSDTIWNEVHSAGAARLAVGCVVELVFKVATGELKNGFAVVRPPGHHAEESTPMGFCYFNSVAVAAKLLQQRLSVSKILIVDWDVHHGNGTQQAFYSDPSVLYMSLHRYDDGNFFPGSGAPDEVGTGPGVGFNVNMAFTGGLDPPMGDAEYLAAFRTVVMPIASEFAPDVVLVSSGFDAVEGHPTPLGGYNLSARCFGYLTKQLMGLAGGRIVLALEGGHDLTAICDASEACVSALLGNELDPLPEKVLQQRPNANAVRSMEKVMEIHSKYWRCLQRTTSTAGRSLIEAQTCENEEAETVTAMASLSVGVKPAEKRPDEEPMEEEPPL
T5 sequence (Q9UKV0 604-1066 isoform Q9UKV0-5): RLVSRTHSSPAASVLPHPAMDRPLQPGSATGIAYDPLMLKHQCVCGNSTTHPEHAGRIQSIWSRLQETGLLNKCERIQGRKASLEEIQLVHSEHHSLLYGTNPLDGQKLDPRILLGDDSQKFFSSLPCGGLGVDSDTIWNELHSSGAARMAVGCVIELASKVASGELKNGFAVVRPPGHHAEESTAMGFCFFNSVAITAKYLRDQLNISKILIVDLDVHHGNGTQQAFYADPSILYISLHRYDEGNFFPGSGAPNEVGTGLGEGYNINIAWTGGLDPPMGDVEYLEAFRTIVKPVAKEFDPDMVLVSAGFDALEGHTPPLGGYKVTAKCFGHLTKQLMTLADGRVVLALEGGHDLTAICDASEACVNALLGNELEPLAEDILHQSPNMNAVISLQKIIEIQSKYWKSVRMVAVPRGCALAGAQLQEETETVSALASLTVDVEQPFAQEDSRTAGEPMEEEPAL
T4 sequence (Q9UQL6 656-1122): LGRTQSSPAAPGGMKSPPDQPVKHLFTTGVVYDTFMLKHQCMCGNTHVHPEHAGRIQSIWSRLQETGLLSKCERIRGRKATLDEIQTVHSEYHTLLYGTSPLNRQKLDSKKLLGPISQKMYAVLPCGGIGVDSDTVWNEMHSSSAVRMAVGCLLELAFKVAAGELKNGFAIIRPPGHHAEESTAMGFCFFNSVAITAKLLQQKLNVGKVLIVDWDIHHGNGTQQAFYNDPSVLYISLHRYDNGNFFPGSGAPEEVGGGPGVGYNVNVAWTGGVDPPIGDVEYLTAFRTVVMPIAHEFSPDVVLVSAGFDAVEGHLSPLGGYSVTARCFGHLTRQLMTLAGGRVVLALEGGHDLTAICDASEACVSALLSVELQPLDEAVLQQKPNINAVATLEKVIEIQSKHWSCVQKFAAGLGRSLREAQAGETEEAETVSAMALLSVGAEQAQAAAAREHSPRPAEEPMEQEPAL
Chain of HDAC3 (O15379 whole entry): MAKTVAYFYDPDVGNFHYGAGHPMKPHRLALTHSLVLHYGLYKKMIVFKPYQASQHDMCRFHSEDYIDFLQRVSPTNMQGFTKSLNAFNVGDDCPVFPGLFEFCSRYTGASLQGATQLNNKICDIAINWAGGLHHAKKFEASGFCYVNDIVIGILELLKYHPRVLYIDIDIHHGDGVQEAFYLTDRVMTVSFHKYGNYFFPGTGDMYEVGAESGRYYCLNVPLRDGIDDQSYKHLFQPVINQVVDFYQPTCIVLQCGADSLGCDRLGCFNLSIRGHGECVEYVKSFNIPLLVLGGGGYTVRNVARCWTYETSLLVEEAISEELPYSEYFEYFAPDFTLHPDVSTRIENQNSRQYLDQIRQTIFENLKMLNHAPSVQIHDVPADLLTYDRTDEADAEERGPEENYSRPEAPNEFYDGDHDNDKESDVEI
Chain of HDAC3 (Q9Y618 395-489 partner limits assumed): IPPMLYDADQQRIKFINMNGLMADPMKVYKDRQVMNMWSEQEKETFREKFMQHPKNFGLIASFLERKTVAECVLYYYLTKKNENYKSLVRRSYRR

Compound	Papp A→B at 1 h, 10 μM [1]	MLM [2]	half-life ([3]; 5 mg eq./Kg, IV PK, brain)	Kp [3, 8]	half-life ([3]; 5 mg eq./Kg, IV PK, muscle)	Kp [3, 9]	half-life ([3]; 5 mg eq./Kg, IV PK, plasma)	clearance ([3]; 5 mg eq./Kg, IV PK, plasma)	Vd ([3]; 5 mg eq./Kg, IV PK, plasma)	Kp [3, 10]	Kp [3, 11]	AUCnorm ([3]; IV PK, brain)	AUCnorm ([3]; IV PK, muscle)	AUCnorm ([3]; IV PK, plasma)	AUCnorm ([3]; Oral PK, brain)	AUCnorm ([3]; Oral PK, muscle)	AUCnorm ([3]; Oral PK, plasma)	Bioavaiability ([3]; Oral PK, plasma)	Observed CmaxNorm ([3]; Oral PK, plasma)	IC50 (HDAC4 [4])	also measured
O=C(NO)C(c1ccc(N2CCOCC2)cc1)c1ccccc1F (centres unmarked)	23.4 ×10⁻⁶ cm/s	93 mL/min/kg BW	3.3 h	0.54 to 8.9	4.8 h	1.9 to 21	1.8 h	123 mL/min/kg	3.1 L/kg	0.67 to 3.4	1.5 to 5.2	511 nM·kg·h/mg	1048 nM·kg·h/mg	409 nM·kg·h/mg	151 nM·kg·h/mg	260 nM·kg·h/mg	109 nM·kg·h/mg	27%	95 nM·kg/mg	0.64 µM	IC50 (HDAC4 [5]; [12]): 0.07 µM
Cc1ncc(-c2ccc(C(C(=O)NO)c3ccccc3F)cc2)cn1 (centres unmarked) [Compound 6, 2-(2-fluorophenyl)-N-hydroxy-2-(4-(2-methylpyrimidin-5-yl)phenyl)acetamide]																					IC50 [6]: 0.12 µM; IC50 (Boc-Lys(Ac)): > 50 µM
O=C(NO)C(c1ccc(-c2ncc(C(F)(F)F)cn2)cc1)c1ccccc1F (centres unmarked) [Compound 8, 2-(2-fluorophenyl)-N-hydroxy-2-(4-(5-(trifluoromethyl)pyrimidin-2-yl)phenyl)acetamide]																					IC50 [6]: 0.059 µM; IC50 (Boc-Lys(Ac)): > 50 µM
O=C(NO)C(c1ccccc1)c1ccc(-c2cncnc2)cc1 (centres unmarked) [drawing 19]	17.5 ×10⁻⁶ cm/s	77 mL/min/kg BW	2.2 h	0.12 to 2	4 h	1.1 to 8.9	1.8 h	107 mL/min/kg	2.6 L/kg	0.15 to 1.4	1 to 8	162 nM·kg·h/mg	835 nM·kg·h/mg	516 nM·kg·h/mg	58 nM·kg·h/mg	306 nM·kg·h/mg	179 nM·kg·h/mg	35%	257 nM·kg/mg	0.55 µM	half-life ([3]; 10 mg/Kg, Oral PK, brain): 2.7 h; half-life ([3]; 10 mg/Kg, Oral PK, muscle): 4 h; half-life ([3]; 10 mg/Kg, Oral PK, plasma): 1.9 h; IC50 (HDAC4 [5]; [12]): 0.09 µM
O=C(NO)C(c1ccccc1)c1ccc(-c2cncnc2)cc1 (centres unmarked) [drawing 21]																					Fold Selectivity (bioch) HDAC6:HDAC4 (HDAC6): 50; Fold Selectivity (bioch) HDAC7:HDAC4 (human HDAC7): 0.8; Fold Selectivity (bioch) HDAC5:HDAC4 [7]: 0.3; Fold Selectivity (bioch) HDAC3:HDAC4 (HDAC3): 320; Fold Selectivity (bioch) HDAC9:HDAC4 (human HDAC9): 1; Fold Selectivity (bioch) HDAC8:HDAC4 (HDAC8): 60; IC50 (HDAC4 [5]; Table 4, bioch, read-out: HDAC4): 0.09 µM
